# Laboratory results published in patent US6803046B2, “Sincalide formulations” (Bracco International B.V., priority 2002, dated 2004).
# Legend:
# [1] = Effect of antioxidants on sincalide formulation stability (HPLC); details: for % Sincalide / % Total Sincalide-Related Impurities: antioxidant 10 μg/mL; for effect of antioxidant on sincalide stability (in words): antioxidant 10 μg/mL in reconstituted sincalide formulation, over 15 hours
# Experimental: An experiment was performed to evaluate the addition of antioxidants as stabilizing agents to prevent sincalide oxidation in formulations of sincalide (formulations for Example 4 contained 85 mg/mL mannitol, 0.005 mg/mL TWEEN® 20, 2.75 mg/mL KH2PO4, 1.0 mg/mL DTPA, 2.0 mg/mL methionine, 7.5 mg/mL lysine, 15 mg/mL arginine, 0.0025 mg/mL sincalide (Bulk formulation), except placebos which contained no sincalide.) The formation of sincalide methionine (Met 3 or Met 6) monosulfoxides, desulfated sincalide and unknown degradants was investigated. The effectiveness of sodium metabisulfite, ascorbic acid, cysteine, glutathione, sodium sulfate, benzalkonium chloride, and benzethonium chloride in inhibiting the degradation of sincalide in terms of their effect on sincalide recovery and sincalide-related impurities, was evaluated by HPLC.
# The effect of various antioxidants on the stabilization of sincalide was evaluated on open and sealed sincalide formulations over 15 hours. The antioxidants were separately added at a concentration of 10 μg/mL to water-reconstituted lyophilized sincalide formulations containing all formulation ingredients except antioxidant. Spiked and unspiked solutions were pooled, subdivided, and either exposed to or protected from air over 15 hours. The sincalide and total sincalide-related impurities were monitored by reversed-phase HPLC with gradient elution and UV detection at 215 nm to compare the effectiveness of the antioxidants.
# To optimize the level of sodium metabisulfite in the formulation, lyophilized sincalide formulations were prepared containing four levels of sodium metabisulfite (0, 10, 30, and 60 μg/vial), as summarized in Table 13. Samples at each concentration were maintained under unstressed and stressed (65 ° C., 64 hours) storage conditions, and were subsequently assayed by HPLC. The “% sincalide” was determined, and the “% (Met 6) monosulfoxide” (tR≈19.7 min.) was monitored as an indication of sincalide oxidation.
# Another experiment was conducted under longer-term accelerated storage conditions utilizing a sincalide formulation with the optimized concentration (40 μg/vial) of sodium metabisulfite to confirm the protective effect on the degradation of sincalide. Sincalide lyophilized formulations with and without the antioxidant from the same batch were heat-stressed at 40° C. and 60° C. for 6 weeks. Also, formulations without sincalide from the same batch were heat-stressed at 40° C. for 8 months.
# [2] = Effect of surfactants on sincalide recovery (RP-HPLC); format: physicochemical; details: for sincalide recoveries: formulations containing trace levels (2.5-7.5 μg/mL) of the surfactant
# Text: During the preliminary developmental studies of a new formulation that consisted of bulking agent/tonicity adjuster, buffer, salt, chelator, and sincalide, it was observed by HPLC analysis that the recovery of the active pharmaceutical ingredient, sincalide, in the bulk solution was sensitive to standing open to air. […] Although to some extent, this sincalide decrease can be accounted for by an increase in the presence of sincalide mono- and disulfoxide degradants, these represent only a very minor percentage of the decreases noted. Thus the decrease in recovery is thought to be attributed to either adsorption/denaturing or air/liquid interface effects. To minimize sincalide degradation associated with surface adsorption, surfactants are added as formulation excipients in bulk and lyophilized formulations of sincalide.
# Sincalide formulations consisting of a bulking agent/tonicity adjuster (D-mannitol), buffer (mono- and dibasic potassium phosphate), salt (sodium/potassium chloride) for tonicity, chelator (pentetic acid), and active ingredient (sincalide) were prepared using varying concentrations of the nonionic surfactant, polysorbate 80 (TWEEN® 80). Bulk solution and reconstituted lyophilized samples were either stoppered immediately or left unstoppered for 17 hours, and were assayed for sincalide recovery by reversed-phase gradient elution HPLC at 215 nm. […]
# An additional experiment was performed to confirm the effect of the concentration of TWEEN® 20 in terms of sincalide recovery in both air exposed and sealed bulk formulation. Sincalide recovery, determined for bulk formulation (75.0 mg/mL D-mannitol, 6.0 mg/mL KCl, 3.25 mg/mL KH2PO4, 1.0 mg/mL DTPA, 0.0025 mg/mL sincalide) containing varying trace levels of TWEEN® 20 stored in open or closed vials using reversed-phase gradient elution HPLC, is shown in Table 10. […]
# [3] = Effect of amino acids on sincalide recovery and related impurities; format: physicochemical; details: for improvement in sincalide recovery vs control without lysine: lyophilized formulations
# Experimental: Experiments were conducted to evaluate several amino acids as potential stabilizers of sincalide, including the non-polar (hydrophobic) methionine residue, aspartic acid and glutamic acid, the polar glycine and cysteine residues, and the basic lysine and arginine amino acids. […]
# For comparison to the non-polar amino acid methionine as a potential processing stabilizer, polar amino acids such as glycine and cysteine were also evaluated. Formulations containing these amino acids were exposed to air in open vials and compared to product in closed vials. […] Table 23 presents the sincalide recoveries for experimental formulations containing variable concentrations of methionine, cysteine or glycine. […]
# [4] = Table 23, bulk formulation, amino acid 2.0 mg/mL Bulk
# [5] = Table 23, bulk formulation, amino acid 2.5 mg/mL Bulk
# [6] = bulk formulation, L-Methionine 0.00 mg/mL Bulk
# [7] = bulk formulation, L-Methionine 0.025 mg/mL Bulk
# [8] = bulk formulation, L-Methionine 0.50 mg/mL Bulk
# [9] = bulk formulation, L-Methionine 2.0 mg/mL Bulk
compound,measurement,setting,value
O=S([O-])S(=O)(=O)[O-].[Na+].[Na+] [Sodium Metabisulfite],% Sincalide,"[1]; Open, 1 h",98.2%
same,% Total Sincalide-Related Impurities,"[1]; Open, 1 h",1.76%
same,% Sincalide,"[1]; Open, 8 h",98.3%
same,% Total Sincalide-Related Impurities,"[1]; Open, 8 h",1.69%
same,% Sincalide,"[1]; Open, 15 h",98.2%
same,% Total Sincalide-Related Impurities,"[1]; Open, 15 h",1.79%
same,% Sincalide,"[1]; Sealed, 0 h",98.3%
same,% Total Sincalide-Related Impurities,"[1]; Sealed, 0 h",1.67%
same,% Sincalide,"[1]; Sealed, 7 h",98.3%
same,% Total Sincalide-Related Impurities,"[1]; Sealed, 7 h",1.66%
same,% Sincalide,"[1]; Sealed, 14 h",98.3%
same,% Total Sincalide-Related Impurities,"[1]; Sealed, 14 h",1.73%
O=S(=O)([O-])[O-].[Na+].[Na+] [Sodium Sulfate],effect of antioxidant on sincalide stability (in words),[1],essentially equivalent to the control formulation
same,% Sincalide,"[1]; Open, 1 h",98.3%
same,% Total Sincalide-Related Impurities,"[1]; Open, 1 h",1.70%
same,% Sincalide,"[1]; Open, 8 h",98.2%
same,% Total Sincalide-Related Impurities,"[1]; Open, 8 h",1.78%
same,% Sincalide,"[1]; Open, 15 h",98.1%
same,% Total Sincalide-Related Impurities,"[1]; Open, 15 h",1.92%
same,% Sincalide,"[1]; Sealed, 0 h",98.2%
same,% Total Sincalide-Related Impurities,"[1]; Sealed, 0 h",1.76%
same,% Sincalide,"[1]; Sealed, 7 h",98.1%
same,% Total Sincalide-Related Impurities,"[1]; Sealed, 7 h",1.90%
same,% Sincalide,"[1]; Sealed, 14 h",98.2%
same,% Total Sincalide-Related Impurities,"[1]; Sealed, 14 h",1.81%
polyoxyethylene sorbitan monolaurate [TWEEN ® 20],foaming in the reconstituted product upon vigorous stirring,"[2]; 2-mL filled vials, TWEEN 20 concentration of 5 μg/mL",slight foaming
same,sincalide recoveries,[2],98-102%
NCC(=O)O [L-Glycine],"Related impurities (%), Closed",[3]; [4],1.1%
same,"Related impurities (%), Open",[3]; [4],51.1%
same,"Related impurities (%), Closed",[3]; [5],1.6%
same,"Related impurities (%), Open",[3]; [5],44.9%
Benzalkonium Chloride,% Sincalide,"[1]; Open, 1 h",82.7%
same,% Total Sincalide-Related Impurities,"[1]; Open, 1 h",17.3%
same,% Sincalide,"[1]; Open, 8 h",88.4%
same,% Total Sincalide-Related Impurities,"[1]; Open, 8 h",11.6%
same,% Sincalide,"[1]; Open, 15 h",82.9%
same,% Total Sincalide-Related Impurities,"[1]; Open, 15 h",17.1%
same,% Sincalide,"[1]; Sealed, 0 h",97.8%
same,% Total Sincalide-Related Impurities,"[1]; Sealed, 0 h",2.21%
same,% Sincalide,"[1]; Sealed, 7 h",97.7%
same,% Total Sincalide-Related Impurities,"[1]; Sealed, 7 h",2.34%
same,% Sincalide,"[1]; Sealed, 14 h",97.4%
same,% Total Sincalide-Related Impurities,"[1]; Sealed, 14 h",2.58%
N[C@@H](CS)C(=O)O [L-Cysteine],"Related impurities (%), Closed",[3]; [4],1.0%
same,"Related impurities (%), Open",[3]; [4],31.0%
O=C1O[C@H]([C@@H](O)CO)C(O)=C1O [Ascorbic Acid],% Sincalide,"[1]; Open, 1 h",98.0%
same,% Total Sincalide-Related Impurities,"[1]; Open, 1 h",2.00%
same,% Sincalide,"[1]; Open, 8 h",98.0%
same,% Total Sincalide-Related Impurities,"[1]; Open, 8 h",2.01%
same,% Sincalide,"[1]; Open, 15 h",97.8%
same,% Total Sincalide-Related Impurities,"[1]; Open, 15 h",2.16%
same,% Sincalide,"[1]; Sealed, 0 h",98.1%
same,% Total Sincalide-Related Impurities,"[1]; Sealed, 0 h",1.95%
same,% Sincalide,"[1]; Sealed, 7 h",98.0%
same,% Total Sincalide-Related Impurities,"[1]; Sealed, 7 h",2.05%
same,% Sincalide,"[1]; Sealed, 14 h",97.8%
same,% Total Sincalide-Related Impurities,"[1]; Sealed, 14 h",2.25%
N[C@@H](CCC(=O)N[C@@H](CS)C(=O)NCC(=O)O)C(=O)O [Glutathione],% Sincalide,"[1]; Open, 1 h",98.1%
same,% Total Sincalide-Related Impurities,"[1]; Open, 1 h",1.94%
same,% Sincalide,"[1]; Open, 8 h",98.2%
same,% Total Sincalide-Related Impurities,"[1]; Open, 8 h",1.85%
same,% Sincalide,"[1]; Open, 15 h",97.9%
same,% Total Sincalide-Related Impurities,"[1]; Open, 15 h",2.13%
same,% Sincalide,"[1]; Sealed, 0 h",98.1%
same,% Total Sincalide-Related Impurities,"[1]; Sealed, 0 h",1.90%
same,% Sincalide,"[1]; Sealed, 7 h",98.3%
same,% Total Sincalide-Related Impurities,"[1]; Sealed, 7 h",1.74%
same,% Sincalide,"[1]; Sealed, 14 h",98.2%
same,% Total Sincalide-Related Impurities,"[1]; Sealed, 14 h",1.82%
polysorbate 80 [TWEEN ® 80],sincalide recoveries,[2],95-98%
CC(C)(C)CC(C)(C)c1ccc(OCCOCC[N+](C)(C)Cc2ccccc2)cc1 [Benzethonium Chloride],effect of antioxidant on sincalide stability (in words),[1],significant destabilizing effect
same,% Sincalide,"[1]; Open, 1 h",92.1%
same,% Total Sincalide-Related Impurities,"[1]; Open, 1 h",7.93%
same,% Sincalide,"[1]; Open, 8 h",88.0%
same,% Total Sincalide-Related Impurities,"[1]; Open, 8 h",12.0%
same,% Sincalide,"[1]; Open, 15 h",92.6%
same,% Total Sincalide-Related Impurities,"[1]; Open, 15 h",7.36%
same,% Sincalide,"[1]; Sealed, 0 h",97.9%
same,% Total Sincalide-Related Impurities,"[1]; Sealed, 0 h",2.13%
same,% Sincalide,"[1]; Sealed, 7 h",98.0%
same,% Total Sincalide-Related Impurities,"[1]; Sealed, 7 h",1.98%
same,% Sincalide,"[1]; Sealed, 14 h",98.0%
same,% Total Sincalide-Related Impurities,"[1]; Sealed, 14 h",1.96%
N[C@@H](CS)C(=O)O [Cysteine],% Sincalide,"[1]; Open, 1 h",97.8%
same,% Total Sincalide-Related Impurities,"[1]; Open, 1 h",2.20%
same,% Sincalide,"[1]; Open, 8 h",97.7%
same,% Total Sincalide-Related Impurities,"[1]; Open, 8 h",2.32%
same,% Sincalide,"[1]; Open, 15 h",98.0%
same,% Total Sincalide-Related Impurities,"[1]; Open, 15 h",2.05%
same,% Sincalide,"[1]; Sealed, 0 h",98.2%
same,% Total Sincalide-Related Impurities,"[1]; Sealed, 0 h",1.85%
same,% Sincalide,"[1]; Sealed, 7 h",98.1%
same,% Total Sincalide-Related Impurities,"[1]; Sealed, 7 h",1.87%
same,% Sincalide,"[1]; Sealed, 14 h",98.1%
same,% Total Sincalide-Related Impurities,"[1]; Sealed, 14 h",1.91%
CSCC[C@H](N)C(=O)O [L-Methionine],"Related impurities (%), Closed",[3]; [4],0.7%
same,"Related impurities (%), Open",[3]; [4],6.4%
same,"Related impurities (%), Closed",[3]; [5],0.7%
same,"Related impurities (%), Open",[3]; [5],10.5%
same,"Related impurities (%), Closed",[3]; [6],1.3%
same,"Related impurities (%), Open",[3]; [6],52.7%
same,"Related impurities (%), Closed",[3]; [7],1.0%
same,"Related impurities (%), Open",[3]; [7],35.9%
same,"Related impurities (%), Closed",[3]; [8],0.8%
same,"Related impurities (%), Open",[3]; [8],19.3%
same,"Related impurities (%), Closed",[3]; [9],0.7%
same,"Related impurities (%), Open",[3]; [9],15.0%
NCCCCC(N)C(=O)O (racemic) [DL-Lysine],improvement in sincalide recovery vs control without lysine,[3]; 3 weeks storage at 40° C.,50%
same,improvement in sincalide recovery vs control without lysine,[3]; 5 weeks storage at 40° C.,75%
